Experimental data taken from patent US20250186541A1, “DLL3 TARGETING PEPTIDES AND CONSTRUCTS THEREOF” (MARIANA ONCOLOGY INC., priority 2023, published 2025).
Numbered stars: 1 amine (or outer) side, 2 acyl side, 3 side chain; on linkers, the order of the positions; unused ones are H or OH. Bridge positions count the residues as written; N and C are the ends. Square brackets hold non-standard residues; d marks the D form. Peptide text beside a SMILES is read from it. * marks the point of attachment. Ala(1-CH2CO2H-4-piperidyl) = N[C@@H](CC1CCN(CC(=O)O)CC1)C(=O)O; DOTA = O=C(O)CN1CCN(CC(=O)O)CCN(CC(=O)*)CCN(CC(=O)O)CC1; Phe(4-CH2NH2) = NCc1ccc(C[C@H](N)C(=O)O)cc1; 1Nal = N[C@@H](Cc1cccc2ccccc12)C(=O)O; 2Nal = N[C@@H](Cc1ccc2ccccc2c1)C(=O)O; mXylylene = c1cc(C[*:1])cc(C[*:2])c1; Gly(4-THP) = N[C@H](C(=O)O)C1CCOCC1; tBuAla = CC(C)(C)C[C@H](N)C(=O)O; NMeD = CN[C@@H](CC(=O)O)C(=O)O; αMeD = C[C@](N)(CC(=O)O)C(=O)O; AllylGly = C=CC[C@H](N)C(=O)O; Chg = N[C@H](C(=O)O)C1CCCCC1; Tle = CC(C)(C)[C@H](N)C(=O)O; αMeP = C[C@@]1(C(=O)O)CCCN1; Pip = O=C(O)[C@@H]1CCCCN1

What follows are compounds tested against T1, human DLL3 (Homo sapiens, UniProt Q9NYJ7) (assay: Affinity determination by Surface Plasmon Resonance (SPR), Biacore, 1:1 binding model). Conditions: biotinylated human DLL3 on streptavidin chip, 25° C.; NB = nonbinding.
T1 construct: biotin (biotinylated)
T1 sequence (Q9NYJ7 27-618): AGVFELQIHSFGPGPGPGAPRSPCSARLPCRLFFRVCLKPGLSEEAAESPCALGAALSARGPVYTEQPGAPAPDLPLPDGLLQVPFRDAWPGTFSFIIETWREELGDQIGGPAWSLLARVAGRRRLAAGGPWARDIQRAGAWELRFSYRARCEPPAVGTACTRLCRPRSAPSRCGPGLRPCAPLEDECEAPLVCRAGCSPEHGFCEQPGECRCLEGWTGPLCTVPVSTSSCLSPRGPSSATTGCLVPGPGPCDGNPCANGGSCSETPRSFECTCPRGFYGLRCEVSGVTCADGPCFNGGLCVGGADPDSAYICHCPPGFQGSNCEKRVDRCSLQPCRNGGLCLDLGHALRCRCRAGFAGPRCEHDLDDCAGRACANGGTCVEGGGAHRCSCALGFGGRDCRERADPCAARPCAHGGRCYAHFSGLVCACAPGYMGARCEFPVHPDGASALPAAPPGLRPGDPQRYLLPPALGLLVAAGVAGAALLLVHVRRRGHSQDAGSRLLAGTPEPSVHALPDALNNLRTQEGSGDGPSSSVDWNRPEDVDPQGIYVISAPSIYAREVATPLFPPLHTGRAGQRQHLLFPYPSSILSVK
Protocol: Example 3. Binding Affinity of Targeting Moieties Polypeptides to DLL3 Affinity Determination by Surface Plasmon Resonance (SPR)
SPR studies were performed on the compounds disclosed herein using the following protocol. […] Biotinylated target ligand human DLL3 was immobilized on a streptavidin sensor chip. A reference surface was set up for nonspecific binding and refractive index changes. For analysis of the kinetics of interactions, varying concentrations of samples were injected at a flow rate of 100 μL/min using running buffer containing 20 mM phosphate buffer with 2.7 mM KCl, 137 mM NaCl, 0.05% Surfactant P20 and 2% DMSO. Sensorgram curves were fitted with 1:1 binding model, and affinity and kinetic parameters were obtained using Biacore Insight evaluation 4.0. software.

Kd [nM]	SPR KD (nM)	Structure (SMILES)
0.113		CC(=O)N[C@H](C)C(=O)N[C@@H](CO)C(=O)N[C@@](C)(CC(=O)O)C(=O)N[C@H]1C/C=C/C[C@@H](C(=O)N2CCC[C@@]2(C)C(=O)N[C@@H](Cc2ccccc2)C(=O)N[C@@H](CC(=O)O)C(N)=O)NC(=O)[C@H](CC(N)=O)NC(=O)[C@H](Cc2ccc3ccccc3c2)NC(=O)[C@H](Cc2ccc(CNC(=O)CN3CCN(CC(=O)O)CCN(CC(=O)O)CCN(CC(=O)O)CC3)cc2)NC(=O)[C@H](CC(C)(C)C)NC(=O)[C@H](Cc2cccc3ccccc23)NC1=O (single isomer, unassigned) [Cpd #193, Ac-(D-Ala)-S-(aMe-Asp)-AllyG(4)-(1Nal)-(t-Bu-Ala)-[PAF(DOTA)]-(2Nal)-N-AllyG(4)-(aMe-P)-F-D-CONH2]
	slow kon	CC(=O)N[C@H](C(=O)N[C@@H](CO)C(=O)N[C@@H](CC(=O)O)C(=O)N[C@H]1CSSC[C@@H](C(=O)N2CCC[C@@]2(C)C(=O)N[C@@H](Cc2ccccc2)C(=O)N[C@@H](CC(=O)O)C(=O)N[C@H](CCCCNC(=O)CN2CCN(CC(=O)O)CCN(CC(=O)O)CCN(CC(=O)O)CC2)C(N)=O)NC(=O)[C@H](CC(N)=O)NC(=O)[C@H](Cc2ccc3ccccc3c2)NC(=O)[C@H](CCC(N)=O)NC(=O)[C@@H]2CCCCN2C(=O)[C@H](Cc2cccc3ccccc23)NC1=O)C1CCCCC1 [compound 130, Ac-(Chg)-S-D-C(3)-(1Nal)-(PIP)-Q-(2Nal)-N-C(3)-(aMe-P)-F-D-D-Lys(DOTA)-CONH2] (Ac-[Chg]SDC[1Nal][Pip]Q[2Nal]NC[αMeP]FD[dK](DOTA)-NH2; disulfide 4-10)
1.05		CC(=O)N[C@H](CO)C(=O)N[C@@H](CC(=O)O)C(=O)N[C@H]1CSSC[C@@H](C(=O)N2CCC[C@@]2(C)C(=O)N[C@@H](Cc2ccccc2)C(=O)N[C@@H](CC(=O)O)C(=O)N[C@H](CCCCNC(=O)CN2CCN(CC(=O)O)CCN(CC(=O)O)CCN(CC(=O)O)CC2)C(N)=O)NC(=O)[C@H](CC(N)=O)NC(=O)[C@H](Cc2c[nH]c3ccccc23)NC(=O)[C@H](CCC(N)=O)NC(=O)[C@H](C2CCCCC2)NC(=O)[C@H](Cc2cccc3ccccc23)NC1=O [compound 138, Ac-(D-Ser)-D-C(3)-(1Nal)-(Chg)-Q-W-N-C(3)-(aMe-P)-F-D-D-Lys(DOTA)-CONH2] (Ac-[dS]DC[1Nal][Chg]QWNC[αMeP]FD[dK](DOTA)-NH2; disulfide 3-9)
0.95		CC(=O)N[C@H](C(=O)N[C@@H](CO)C(=O)N[C@@H](CC(=O)O)C(=O)N[C@H]1CSSC[C@@H](C(=O)N2CCC[C@@]2(C)C(=O)N[C@@H](Cc2ccccc2)C(=O)N[C@@H](CC(=O)O)C(=O)N[C@H](CCCCNC(=O)CN2CCN(CC(=O)O)CCN(CC(=O)O)CCN(CC(=O)O)CC2)C(N)=O)NC(=O)[C@H](CC(N)=O)NC(=O)[C@H](Cc2ccc3ccccc3c2)NC(=O)[C@H](CCC(N)=O)NC(=O)[C@H](C(C)(C)C)NC(=O)[C@H](Cc2cccc3ccccc23)NC1=O)C1CCCCC1 [compound 131, Ac-(Chg)-S-D-C(3)-(1Nal)-(D-Leu)-Q-(2Nal)-N-C(3)-(aMe-P)-F-D-D-Lys(DOTA)-CONH2] (Ac-[Chg]SDC[1Nal][Tle]Q[2Nal]NC[αMeP]FD[dK](DOTA)-NH2; disulfide 4-10)
> 30		CC(=O)N[C@H](C(=O)N[C@@H](CO)C(=O)N[C@@H](CC(=O)O)C(=O)N[C@H]1CSSC[C@@H](C(=O)N2CCC[C@@]2(C)C(=O)N[C@@H](Cc2ccccc2)C(=O)N[C@@H](CC(=O)O)C(=O)N[C@H](CCCCNC(=O)CN2CCN(CC(=O)O)CCN(CC(=O)O)CCN(CC(=O)O)CC2)C(N)=O)NC(=O)[C@H](CC(N)=O)NC(=O)[C@H](Cc2c[nH]c3ccccc23)NC(=O)[C@H](C2CCOCC2)NC(=O)[C@H](CC(C)C)NC(=O)[C@H](Cc2cccc3ccccc23)NC1=O)C1CCCCC1 [compound 133, Ac-(Chg)-S-D-C(3)-(1Nal)-L-(THPG)-W-N-C(3)-(aMe-P)-F-D-[D-Lys(DOTA)]-NH2] (Ac-[Chg]SDC[1Nal]L[Gly(4-THP)]WNC[αMeP]FD[dK](DOTA)-NH2; disulfide 4-10)
> 30		CC(=O)N[C@H](C(=O)N[C@@H](CO)C(=O)N[C@@H](CC(=O)O)C(=O)N[C@H]1CSCc2cccc(c2)CSC[C@@H](C(=O)N2CCC[C@@]2(C)C(=O)N[C@@H](Cc2ccccc2)C(=O)N[C@@H](CC(=O)O)C(=O)N[C@H](CCCCNC(=O)CN2CCN(CC(=O)O)CCN(CC(=O)O)CCN(CC(=O)O)CC2)C(N)=O)NC(=O)[C@H](CC(N)=O)NC(=O)[C@H](Cc2c[nH]c3ccccc23)NC(=O)[C@H](CCC(N)=O)NC(=O)[C@H](CC(C)C)NC(=O)[C@H](Cc2cccc3ccccc23)NC1=O)C1CCCCC1 [Cpd #144, Ac-(Chg)-S-D-C(mDBX)-(1Nal)-L-Q-W-N-C(2)-(aMe-P)-F-D-D-Lys(DOTA)-CONH2] (Ac-[Chg]SDC[1Nal]LQWNC[αMeP]FD[dK](DOTA)-NH2; linker 4-10 via mXylylene)
> 100		CSCC[C@H](NC(C)=O)C(=O)N[C@@H](CO)C(=O)N[C@@H](CC(=O)O)C(=O)N[C@H]1CSSC[C@@H](C(=O)N2CCC[C@H]2C(=O)N[C@@H](Cc2ccccc2)C(=O)N[C@@H](C)C(N)=O)NC(=O)[C@H](CC(N)=O)NC(=O)[C@H](Cc2c[nH]c3ccccc23)NC(=O)[C@H](CCC(N)=O)NC(=O)[C@H](CC(C)C)NC(=O)[C@H](Cc2c[nH]c3ccccc23)NC1=O [compound 29, Ac-M-S-D-C(3)-W-L-Q-W-N-C(3)-P-F-(L-Ala)-CONH2] (Ac-MSDCWLQWNCPFA-NH2; disulfide 4-10)
12		CC(=O)N[C@H](C(=O)N[C@@H](CO)C(=O)N[C@@H](CC(=O)O)C(=O)N[C@H]1CSSC[C@@H](C(=O)N2CCC[C@H]2C(=O)N[C@@H](Cc2ccccc2)C(=O)N[C@@H](CC(=O)O)C(=O)N[C@H](CCCCNC(=O)CN2CCN(CC(=O)O)CCN(CC(=O)O)CCN(CC(=O)O)CC2)C(N)=O)NC(=O)[C@H](CC(N)=O)NC(=O)[C@H](Cc2c[nH]c3ccccc23)NC(=O)[C@H](CCC(N)=O)NC(=O)[C@H](CC(C)C)NC(=O)[C@H](Cc2c[nH]c3ccccc23)NC1=O)C(C)(C)C [compound 76, Ac-tBuGly-S-D-C(3)-W-L-Q-W-N-C(3)-P-F-D-D-Lys(DOTA)-CONH2] (Ac-[Tle]SDCWLQWNCPFD[dK](DOTA)-NH2; disulfide 4-10)
0.38		CC(=O)N[C@H](C)C(=O)N[C@@H](CO)C(=O)N(C)[C@@H](CC(=O)O)C(=O)N[C@H]1CSSC[C@@H](C(=O)N2CCC[C@@]2(C)C(=O)N[C@@H](Cc2ccccc2)C(=O)N[C@@H](CC(=O)O)C(=O)N[C@H](CCCCNC(=O)CN2CCN(CC(=O)O)CCN(CC(=O)O)CCN(CC(=O)O)CC2)C(N)=O)NC(=O)[C@H](CC(N)=O)NC(=O)[C@H](Cc2ccc3ccccc3c2)NC(=O)[C@H](CCC(N)=O)NC(=O)[C@H](CC(C)(C)C)NC(=O)[C@H](Cc2cccc3ccccc23)NC1=O [compound 170, Ac-(D-Ala)-S-(NMe-Asp)-C(3)-(1Nal)-(t-Bu-Ala)-Q-(2Nal)-N-C(3)-(aMe-P)-F-D-[D-Lys(DOTA)]-NH2] (Ac-[dA]S[NMeD]C[1Nal][tBuAla]Q[2Nal]NC[αMeP]FD[dK](DOTA)-NH2; disulfide 4-10)
0.386		CC(=O)N[C@@H](CC1CCN(CC(=O)O)CC1)C(=O)N[C@@H](CO)C(=O)N[C@@](C)(CC(=O)O)C(=O)N[C@H]1C/C=C/C[C@@H](C(=O)N2CCC[C@@]2(C)C(=O)N[C@@H](Cc2ccccc2)C(=O)N[C@@H](CC(=O)O)C(N)=O)NC(=O)[C@H](CC(N)=O)NC(=O)[C@H](Cc2ccc3ccccc3c2)NC(=O)[C@H](Cc2ccc(CNC(=O)CN3CCN(CC(=O)O)CCN(CC(=O)O)CCN(CC(=O)O)CC3)cc2)NC(=O)[C@H](CC(C)(C)C)NC(=O)[C@H](Cc2cccc3ccccc23)NC1=O [compound 208, Ac-[3-(piperidinyl-4-CH2CO2H)-Ala]-S-(aMe-Asp)-AllyG(4)-(1Nal)-(t-Bu-Ala)-[PAF(DOTA)]-(2Nal)-N-AllyG(4)-(aMe-P)-F-D-CONH2] (Ac-[Ala(1-CH2CO2H-4-piperidyl)]S[αMeD][AllylGly][1Nal][tBuAla][Phe(4-CH2NH2)](DOTA)[2Nal]N[AllylGly][αMeP]FD-NH2; staple (E) 4-10)
0.38		CC(=O)N[C@H](C(=O)N[C@@H](CO)C(=O)N[C@@H](CC(=O)O)C(=O)N[C@H]1CSSC[C@@H](C(=O)N2CCC[C@H]2C(=O)N[C@@H](Cc2ccccc2)C(=O)N[C@@H](CC(=O)O)C(=O)N[C@H](CCCCNC(=O)CN2CCN(CC(=O)O)CCN(CC(=O)O)CCN(CC(=O)O)CC2)C(N)=O)NC(=O)[C@H](CC(N)=O)NC(=O)[C@H](Cc2ccc3ccccc3c2)NC(=O)[C@H](CCC(N)=O)NC(=O)[C@H](CC(C)C)NC(=O)[C@H](Cc2cccc3ccccc23)NC1=O)C1CCCCC1 [compound 114, Ac-(Chg)-S-D-C(3)-(1Nal)-L-Q-(2Nal)-N-C(3)-P-F-D-D-Lys(DOTA)-CONH2] (Ac-[Chg]SDC[1Nal]LQ[2Nal]NCPFD[dK](DOTA)-NH2; disulfide 4-10)
